pIC50: −log10 of the molar value. Values after ≈ are worked out from the molar mass of the structure shown.
Assays:
[1] = target: T1, Sphingosine 1-phosphate receptor 2 (Homo sapiens, UniProt O95136); experiment: Antagonist activity at S1P2 (unknown origin); format: functional
[2] = Lipophilicity, logD of the compound at pH 7.4 by chromatographic method; settings: buffer
[3] = target: T1, Sphingosine 1-phosphate receptor 2; experiment: Displacement of sphingosine D-erythro [3-3H] I- phosphate from human S1P2 receptor expressed in CHO cell membrane
[4] = target: T1, Sphingosine 1-phosphate receptor 2; experiment: Antagonist activity at human S1P2 receptor expressed in CHO cells assessed as inhibition of calcium flux
[5] = target: T1, Sphingosine 1-phosphate receptor 2; experiment: Antagonist activity at human S1P2 receptor expressed in CHO cells assessed as inhibition of [35S]GTPgammaS binding
[6] = target: T1, Sphingosine 1-phosphate receptor 2; experiment: Agonist activity at human S1P2 receptor expressed in CHO cells assessed as increase in calcium flux
[7] = target: Sphingosine 1-phosphate receptor 1 (Homo sapiens, UniProt P21453); experiment: Antagonist activity at human S1P1 receptor expressed in CHO cells assessed as inhibition of calcium flux; format: functional, cell-based
Chain of Sphingosine 1-phosphate receptor 1 (P21453 whole entry): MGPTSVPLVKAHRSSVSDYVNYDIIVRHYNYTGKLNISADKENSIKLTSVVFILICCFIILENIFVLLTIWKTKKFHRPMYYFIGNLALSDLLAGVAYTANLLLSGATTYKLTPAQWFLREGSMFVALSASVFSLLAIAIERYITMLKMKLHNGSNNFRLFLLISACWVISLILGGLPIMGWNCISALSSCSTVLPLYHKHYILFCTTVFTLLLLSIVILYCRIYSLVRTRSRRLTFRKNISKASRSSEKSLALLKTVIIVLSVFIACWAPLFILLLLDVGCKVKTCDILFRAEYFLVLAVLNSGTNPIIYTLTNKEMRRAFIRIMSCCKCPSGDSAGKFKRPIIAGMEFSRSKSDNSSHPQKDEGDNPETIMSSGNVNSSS

Cytochrome P450 3A4 = Cytochrome P450 3A4 (Homo sapiens, UniProt P08684); experiment: Induction of CYP3A4 in human cryopreserved hepatocytes assessed as mRNA expression at 10 uM incubated for 72 hrs relative to control; format: ADME, cell-based, Hepatocyte
Chain of Cytochrome P450 3A4 (P08684 whole entry): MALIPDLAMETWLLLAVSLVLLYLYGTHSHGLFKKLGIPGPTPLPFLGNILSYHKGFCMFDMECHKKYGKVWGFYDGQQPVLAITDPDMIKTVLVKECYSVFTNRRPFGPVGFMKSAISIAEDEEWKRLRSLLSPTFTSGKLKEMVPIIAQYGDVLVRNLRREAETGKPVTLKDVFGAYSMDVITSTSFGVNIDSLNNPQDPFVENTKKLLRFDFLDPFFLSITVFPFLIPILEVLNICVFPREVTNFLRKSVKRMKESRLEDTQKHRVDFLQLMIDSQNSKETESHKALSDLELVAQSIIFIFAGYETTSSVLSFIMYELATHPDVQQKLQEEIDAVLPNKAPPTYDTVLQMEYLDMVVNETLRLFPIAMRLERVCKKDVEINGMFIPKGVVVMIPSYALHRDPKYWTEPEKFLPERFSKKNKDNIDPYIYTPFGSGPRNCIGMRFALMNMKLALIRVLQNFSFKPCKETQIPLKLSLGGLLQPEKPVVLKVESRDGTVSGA

CYP450 = CYP450 (Homo sapiens, UniProt P04798+P05177+P05181+P08684+P10632+P10635+P11509+P11712+P13584+P20813+P20815+P20853+P24462+P24903+P33260+P33261+P51589+P78329+P98187+Q02928+Q08477+Q16678+Q16696+Q5TCH4+Q6VVX0+Q7Z449+Q8TAV3+Q96SQ9+Q9HB55); experiment: Inhibition of CYP450 in human liver microsomes; format: ADME
PXR = target: T2, PXR (Homo sapiens, UniProt O75469); experiment: Activation of PXR in human DPX2 cells at 10 uM incubated for 24 hrs relative to control; format: ADME, cell-based; settings: read-out: Activity
T2 sequence (O75469 whole entry): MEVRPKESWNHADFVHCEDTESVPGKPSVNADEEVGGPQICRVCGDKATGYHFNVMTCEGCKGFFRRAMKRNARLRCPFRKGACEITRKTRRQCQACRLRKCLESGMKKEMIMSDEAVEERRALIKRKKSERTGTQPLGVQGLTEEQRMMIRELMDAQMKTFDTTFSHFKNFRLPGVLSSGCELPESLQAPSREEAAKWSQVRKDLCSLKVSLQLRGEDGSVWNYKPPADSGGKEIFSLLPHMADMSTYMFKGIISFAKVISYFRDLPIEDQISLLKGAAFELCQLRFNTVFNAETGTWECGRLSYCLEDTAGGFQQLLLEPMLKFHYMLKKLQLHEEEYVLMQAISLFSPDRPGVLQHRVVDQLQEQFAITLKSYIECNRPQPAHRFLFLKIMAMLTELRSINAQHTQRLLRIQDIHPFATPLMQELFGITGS

cells = settings: Homo sapiens, HFL1
[8] = target: T1, Sphingosine 1-phosphate receptor 2
[9] = target: T1, Sphingosine 1-phosphate receptor 2; remark: listed apart in the source
[10] = Efflux ratio of apparent permeability across apical to basolateral side in human Caco-2 cells at pH 6.5 at 10 uM incubated for 60 mins by UHPLC analysis; settings: Caco-2, pH 6.5
[11] = Unbound plasma concentration in CD1 mouse at 5 mg/kg, po or 1 mg/kg, iv measured up to 24 hrs by LC-MS/MS analysis
[12] = Thermodynamic solubility of compound at pH 7.4; settings: buffer
[13] = Apparent permeability across apical to basolateral side in human Caco-2 cells at pH 6.5 at 10 uM incubated for 60 mins by UHPLC analysis; settings: Caco-2, pH 6.5
[14] = Half life in CD1 mouse at 1 mg/kg, iv measured up to 24 hrs by LC-MS/MS analysis; settings: in vivo
[15] = Volume of distribution at steady state in CD1 mouse at 1 mg/kg, iv measured up to 24 hrs by LC-MS/MS analysis; settings: in vivo
[16] = Efflux ratio of apparent permeability across apical to basolateral side in MDCK-MDR1 cells at 10 uM incubated for 1 hr by LC-MS/MS analysis; settings: dog
[17] = Apparent permeability across apical to basolateral side in MDCK-MDR1 cells at 10 uM incubated for 1 hr by LC-MS/MS analysis; settings: dog
in vivo = settings: CD1, mouse, po, 5 mg/kg

T1 sequence (O95136 whole entry): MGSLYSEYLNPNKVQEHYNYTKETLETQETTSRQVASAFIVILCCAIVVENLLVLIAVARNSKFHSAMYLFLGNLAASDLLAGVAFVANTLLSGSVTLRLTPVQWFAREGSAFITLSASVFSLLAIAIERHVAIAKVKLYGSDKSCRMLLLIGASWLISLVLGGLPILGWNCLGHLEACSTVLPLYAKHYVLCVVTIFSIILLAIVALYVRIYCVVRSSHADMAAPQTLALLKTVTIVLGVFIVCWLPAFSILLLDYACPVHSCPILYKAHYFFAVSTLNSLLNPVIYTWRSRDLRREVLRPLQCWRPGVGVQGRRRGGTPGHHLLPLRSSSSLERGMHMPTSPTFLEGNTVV

chromatographic logD [2] | pIC50 [3] | pIC50 [4] | pIC50 [5] | pIC50 [6] | pIC50 [7] | SMILES | other results
5.91 | 5.42 | < 5.09 | 4.72 | < 4.63 | < 4.70 | COc1cc(OC)c(NC(=O)Cc2cn(C)c3ccccc23)cc1Cl | –
– | – | – | – | – | < 4.70 | COc1cc(OC)c(NC(=O)Cc2nn(CC(=O)O)c(=O)c3ccccc23)cc1Cl | –
1.13 | – | < 4.70 | – | < 4.63 | – | COc1ccc(NC(=O)Cc2nn(CC(=O)O)c(=O)c3ccccc23)c(OC)c1 | –
2.13 | 4.97 | < 5.18 | 4.75 | < 4.63 | < 4.70 | COc1cc(OC)c(NC(=O)Cc2cn(CC(=O)O)c3ccccc23)cc1Cl | –
– | – | 6.83 | 6.95 | – | – | CCOc1cc2cn(Cc3nn(CC(=O)O)c(=O)c4ccccc34)nc2cc1Cl | pIC50 (cells): 7.47; pIC50 [8]: 7.64; pIC50 [9]: 5.79
1.86 | 5.70 | 5.47 | 5.05 | < 4.63 | < 4.70 | COc1cc(OC)c(NC(=O)Cn2nc(CC(=O)O)c3ccccc32)cc1Cl | –

More lines, now with the values behind:

SMILES | chromatographic logD [2] | pIC50 [3] | pIC50 [4] | pIC50 [5] | pIC50 [6] | pIC50 [7] | other results
Cc1nn(C)c2nc(NNC(=O)Nc3cc(Cl)nc(Cl)c3)cc(C(C)C)c12 | – | – | – | – | – | – | pIC50 [1]: 7.77
C[C@H](C(=O)O)n1nc(Cn2cc3cc(OCC4CC4)c(Cl)cc3n2)c2ccccc2c1=O | – | – | – | – | – | – | Activity (Cytochrome P450 3A4): 4.4%; pIC50 (CYP450): < 4.00; activity at 24 h, 10 µM (PXR): 5.7%
CCn1nc(CC(=O)Nc2ccc(OC(F)(F)F)c(Cl)c2)c2ccccc2c1=O | 5.42 | – | 6.70 | 6.33 | – | – | –
CC(C(=O)O)c1nn(Cc2cn3cc(OCC4CC4)c(C(F)(F)F)cc3n2)c2ccccc2c1=O (racemic) | 2.99 | – | 8.47 | 7.29 | – | – | pIC50 (cells): 9.15; efflux ratio at 1 h, 10 µM [10]: 0.4; fraction unbound at 24 h [11]: 0.007; solubility thermodynamic [12]: 221 µg/mL (≈ 454 µM); Papp A→B at 1 h, 10 µM [13]: 15 ×10⁻⁶ cm/s; half-life at 24 h [14]: 1.9 h; Vd at 24 h [15]: 0.66 L/kg; pIC50 [8]: 8.30; efflux ratio at 1 h, 10 µM [16]: 3.7; pIC50 [9]: 7.25; Papp A→B at 1 h, 10 µM [17]: 2.5 ×10⁻⁶ cm/s; Cmax at 24 h (in vivo): 3520 ng/mL

Source: ChEMBL document CHEMBL5046225, “Discovery and Optimization of Orally Bioavailable Phthalazone and Cinnolone Carboxylic Acid Derivatives as S1P2 Antagonists against Fibrotic Diseases” (J Med Chem, 2021)
